For 31 molecules, IC50 results are on record in patent US20240409556A1, “BENZOPIPERAZINE AND RELATED ANALOGS FOR INHIBITING YAP/TAZ-TEAD” (Springworks Therapeutics, Inc., priority 2023, published 2024).

For this assay, the system named is YAP/TAZ-TEAD transcription. Nature of the assay: Reporter gene assay for measuring the inhibition of YAP/TAZ-TEAD transcription (TEAD-responsive element luciferase reporter in Hek293T cells). It is filed as cell-based. Conditions: 24 hours incubation. As to the method: Example 56: Activity of Compounds of the Disclosure in a Reporter Gene Assay for Measuring the Inhibition of YAP/TAZ-TEAD Transcription
Hek293T cells were cultured in DMEM supplemented with 10% fetal bovine serum, Sodium pyruvate, Sodium bicarbonate, L-glutamine. The cells were harvested and transiently transfected with TEAD-responsive element luciferase reporter. Transfected cells were plated in 384-well plate containing pre-diluted compounds. After 24 hours incubation at 37° C./5% CO2, assay plates were cooled to room temperature and levelled to an equal volume per well, prior to the addition of 25 uL luciferase substrate SteadyLite (Perkin Elmer)/well. The plate was shaken for 10 min at 600 rpm, centrifuged for 1 min at 500 rpm and measured with an Envision reader (PerkinElmer). The amount of relative light units produced by the TEAD reporter was used to calculate the percentage of inhibition.
The percent of reporter inhibition was calculated in the presence of a positive control inhibitor (100% inhibition) versus a condition with the presence of the vehicle basal activity of the reporter (0% inhibition). The ability of a test compound to inhibit this activity was determined as: Percentage inhibition=[[…]((RLU determined in the presence of vehicle−RLU determined for sample with test compound present) divided by (RLU determined in the presence of vehicle−RLU determined for sample with positive control inhibitor))]*100.
The activities of example compounds tested are depicted in Table 3. The activity ranges A, B and C refer to IC50 values in the reporter gene assay as follows: “A”: IC50<1 μM; “B”: 1 μM≤IC50≤10 μM and “C”: IC50>10 μM; NT=not tested.
In general terms: A reporter such as luciferase makes a cellular process visible.

pIC50: −log10 of the molar value.

As a reminder, the pIC50 is the IC50 on a negative log10 scale, so that one unit is a factor of ten. Consider `O=C(O)C1(F)CCN2c3ccccc3N(c3ccc(C(F)(F)F)cc3)CC2C1` [123-D4, (6aS,8S)- or (6aR,8S)- or (6aR,8R)- or (6aS,8R)-8-fluoro-5-(4-(trifluoromethyl)phenyl)-6,6a,7,8,9,10-hexahydro-5H-pyrido[1,2-a]quinoxaline-8-carboxylic acid], for which the pIC50 was over 6.00. Regarding `O=C(O)C1(O)CCN2c3ccccc3N(c3ccc(C(F)(F)F)cc3)CC2C1` (stereo not drawn) [126A, (cis)- or (trans)-8-hydroxy-5-(4-(trifluoromethyl)phenyl)-6,6a,7,8,9,10-hexahydro-5H-pyrido[1,2-a]quinoxaline-8-carboxylic acid], for the setting “Homo sapiens, HEK-293T, 24 h”, the pIC50 is over 6.00. On the same count and under the same terms, in the case of `C=CC(=O)NCC1CN(c2ccc(C(F)(F)F)cc2)c2ccccc2N1CCO` (stereo not shown) [compound 1, N-((1-(2-hydroxyethyl)-4-(4-(trifluoromethyl)phenyl)-1,2,3,4-tetrahydroquinoxalin-2-yl)methyl)acrylamide] it was over 6.00. On the same count and under the same terms, in the case of `CC(=O)NCC1CN(c2ccc(C(F)(F)F)cc2)c2ccccc2N1CCO` (stereo not shown) [compound 2, N-((1-(2-hydroxyethyl)-4-(4-(trifluoromethyl)phenyl)-1,2,3,4-tetrahydroquinoxalin-2-yl)methyl)acetamide] it was under 5.00; in that of `CC(=O)NCC1CN(c2ccc(C(F)(F)F)cc2)c2ccccc2N1CC#N` (stereo not shown) [compound 4, N-((1-(cyanomethyl)-4-(4-(trifluoromethyl)phenyl)-1,2,3,4-tetrahydroquinoxalin-2-yl)methyl)acetamide], 5.00 to 6.00; in that of `C=CC(=O)NCC1CN(c2ccc(C(F)(F)F)cc2)c2ccccc2N1CCCO` (stereo not shown) [compound 5, N-((1-(3-hydroxypropyl)-4-(4-(trifluoromethyl)phenyl)-1,2,3,4-tetrahydroquinoxalin-2-yl)methyl)acrylamide], over 6.00. On the same count and under the same terms, under `CC(=O)NCC1CN(c2ccc(C(F)(F)F)cc2)c2ccccc2N1CCCO` (stereo not shown) [compound 6, N-((1-(3-hydroxypropyl)-4-(4-(trifluoromethyl)phenyl)-1,2,3,4-tetrahydroquinoxalin-2-yl)methyl)acetamide] stands under 5.00; under `C=CC(=O)NCC1CN(c2ccc(C(F)(F)F)cc2)c2ccccc2N1CCC(=O)O` (stereo not shown) [compound 7, 3-(2-(acrylamidomethyl)-4-(4-(trifluoromethyl)phenyl)-3,4-dihydroquinoxalin-1(2H)-yl)propanoic acid], under 5.00; under `CC(=O)NCC1CN(c2ccc(C(F)(F)F)cc2)c2ccccc2N1CCC(=O)O` (stereo not shown) [compound 8, 3-(2-(acetamidomethyl)-4-(4-(trifluoromethyl)phenyl)-3,4-dihydroquinoxalin-1(2H)-yl)propanoic acid], under 5.00. For `C=CC(=O)NCC1CN(c2ccc(C(F)(F)F)cc2)c2ccccc2N1CCC(=O)NC` (stereo not shown) [compound 9, N-((1-(3-(methylamino)-3-oxopropyl)-4-(4-(trifluoromethyl)phenyl)-1,2,3,4-tetrahydroquinoxalin-2-yl)methyl)acrylamide], under “Homo sapiens, HEK-293T, 24 h”, the pIC50 was over 6.00.

Turning to `O=C1CN2c3ccccc3N(c3ccc(C(F)(F)F)cc3)CC2CN1` (stereo not shown) [compound 10, 6-(4-(trifluoromethyl)phenyl)-4,4a,5,6-tetrahydro-1H-pyrazino[1,2-a]quinoxalin-2(3H)-one], under “Homo sapiens, HEK-293T, 24 h”, the pIC50 is 5.00 to 6.00. Regarding `C=CC(=O)NCC1CN(c2ccc(C(F)(F)F)cc2)c2ccccc2N1CC(N)=O` (stereo not shown) [compound 11, N-((1-(2-amino-2-oxoethyl)-4-(4-(trifluoromethyl)phenyl)-1,2,3,4-tetrahydroquinoxalin-2-yl)methyl)acrylamide], the pIC50 (Homo sapiens, HEK-293T, 24 h) is over 6.00. Same read-out and setting: under `C=CC(=O)NCC1CN(c2ccc(C(F)(F)F)cc2)c2ccccc2N1CC(=O)NC` (stereo not shown) [compound 12, N-((1-(2-(methylamino)-2-oxoethyl)-4-(4-(trifluoromethyl)phenyl)-1,2,3,4-tetrahydroquinoxalin-2-yl)methyl)acrylamide] stands over 6.00; under `CS(=O)(=O)N1CCN2c3ccccc3N(c3ccc(C(F)(F)F)cc3)CC2C1` (stereo not shown) [compound 16, 3-(methylsulfonyl)-6-(4-(trifluoromethyl)phenyl)-2,3,4,4a,5,6-hexahydro-1H-pyrazino[1,2-a]quinoxaline], over 6.00; under `C=CC(=O)NCC1CN(c2ccc(C(F)(F)F)cc2)c2ccccc2N1C(C)=O` (stereo not shown) [compound 18, N-((1-acetyl-4-(4-(trifluoromethyl)phenyl)-1,2,3,4-tetrahydroquinoxalin-2-yl)methyl)acrylamide], 5.00 to 6.00.

`CC(=O)NCC1CN(c2ccc(C(F)(F)F)cc2)c2ccccc2N1C` (stereo not shown) [compound 19, N-((1-methyl-4-(4-(trifluoromethyl)phenyl)-1,2,3,4-tetrahydroquinoxalin-2-yl)methyl)acetamide] showed a pIC50 (Homo sapiens, HEK-293T, 24 h) of 5.00 to 6.00. Same read-out and setting: under `COC(=O)N1CCN2c3ccccc3N(c3ccc(C(F)(F)F)cc3)CC2C1` (stereo not shown) [compound 20, methyl 6-(4-(trifluoromethyl)phenyl)-1,2,4,4a,5,6-hexahydro-3H-pyrazino[1,2-a]quinoxaline-3-carboxylate] stands over 6.00; under `C=CC(=O)N1CCN2CCN(c3ccc(C(F)(F)F)cc3)CC2C1` (stereo not shown) [compound 21, 1-(8-(4-(trifluoromethyl)phenyl)octahydro-2H-pyrazino[1,2-a]pyrazin-2-yl)prop-2-en-1-one], over 6.00. The same measure, in the same setting: under `C=CC(=O)NCC1CN(c2ccc(C(F)(F)F)cc2)c2ccccc2N1S(C)(=O)=O` (stereo not shown) [compound 23, N-((1-(methylsulfonyl)-4-(4-(trifluoromethyl)phenyl)-1,2,3,4-tetrahydroquinoxalin-2-yl)methyl)acrylamide] stands over 6.00; under `Cc1nnc(N2CCN3c4ccccc4N(c4ccc(C(F)(F)F)cc4)CC3C2)o1` (stereo not shown) [compound 24, 2-methyl-5-(6-(4-(trifluoromethyl)phenyl)-1,2,4,4a,5,6-hexahydro-3H-pyrazino[1,2-a]quinoxalin-3-yl)-1,3,4-oxadiazole], under 5.00. Turning to `FC(F)(F)c1ccc(N2CC3CN(c4ncco4)CCN3c3ccccc32)cc1` (stereo not shown) [compound 25, 2-(6-(4-(trifluoromethyl)phenyl)-1,2,4,4a,5,6-hexahydro-3H-pyrazino[1,2-a]quinoxalin-3-yl)oxazole], for the setting “Homo sapiens, HEK-293T, 24 h”, the pIC50 is under 5.00. The same measure, in the same setting: in the case of `CN1CCN2c3ccccc3N(c3ccc(C(F)(F)F)cc3)CC2C1` (stereo not shown) [compound 26, 3-methyl-6-(4-(trifluoromethyl)phenyl)-2,3,4,4a,5,6-hexahydro-1H-pyrazino[1,2-a]quinoxaline] it was 5.00 to 6.00. Still for that read-out and setting: in the case of `C=CC(=O)NCC1CN(c2ccc(C(F)(F)F)cc2)c2cccnc2N1C` (stereo not shown) [compound 27, N-((4-methyl-1-(4-(trifluoromethyl)phenyl)-1,2,3,4-tetrahydropyrido[2,3-b]pyrazin-3-yl)methyl)acrylamide] it was over 6.00.

Molecule `O=Cc1ccc(CN2CCN3c4ccccc4N(c4ccc(C(F)(F)F)cc4)CC3C2)cc1O` (stereo not shown) [compound 30, 2-hydroxy-4-((6-(4-(trifluoromethyl)phenyl)-1,2,4,4a,5,6-hexahydro-3H-pyrazino[1,2-a]quinoxalin-3-yl)methyl)benzaldehyde] had a negative logarithm of the IC50 (pIC50) (Homo sapiens, HEK-293T, 24 h) of 5.00 to 6.00. Same read-out and setting: under `O=C(O)CN1CCN2c3ccccc3N(c3ccc(C(F)(F)F)cc3)CC2C1` (stereo not shown) [compound 31, 2-(6-(4-(trifluoromethyl)phenyl)-1,2,4,4a,5,6-hexahydro-3H-pyrazino[1,2-a]quinoxalin-3-yl)acetic acid] stands 5.00 to 6.00; under `C=CC(=O)N1CCN2CC(=O)N(c3ccc(C(F)(F)F)cc3)CC2C1` (stereo not shown) [compound 33, 8-acryloyl-2-(4-(trifluoromethyl)phenyl)-hexahydro-2H-pyrazino[1,2-a]pyrazin-3(4H)-one], over 6.00. `CC(=O)N1CCN2c3nccnc3N(c3ccc(C(F)(F)F)cc3)CC2C1` (stereo not shown) [compound 40, 1-(5-(4-(trifluoromethyl)phenyl)-5,6,6a,7,9,10-hexahydro-8H-dipyrazino[1,2-a:2′,3′-e]pyrazin-8-yl)ethan-1-one]: where the note is “Homo sapiens, HEK-293T, 24 h”, the pIC50 is over 6.00. As for `C=CC(=O)N1CCN2c3nccnc3N(c3ccc(C(F)(F)F)cc3)CC2C1` (stereo not shown) [compound 41, 1-(5-(4-(trifluoromethyl)phenyl)-5,6,6a,7,9,10-hexahydro-8H-dipyrazino[1,2-a:2′,3′-e]pyrazin-8-yl)prop-2-en-1-one], the pIC50 (Homo sapiens, HEK-293T, 24 h) was over 6.00.

`C=CC(=O)N1CCN2C(C1)CN(c1ccc(C(F)(F)F)cc1)C1C2C1(Cl)Cl` (stereo not shown) [compound 43, 1-(1,1-dichloro-2-(4-(trifluoromethyl)phenyl)octahydrocyclopropa[e]pyrazino[1,2-a]pyrazin-5(1H)-yl)prop-2-en-1-one] had a pIC50 (Homo sapiens, HEK-293T, 24 h) of over 6.00. Molecule `CC(=O)N1CCN2C(=O)CN(c3ccc(C(F)(F)F)cc3)CC2C1` (stereo not shown) [compound 44, 8-acetyl-2-(4-(trifluoromethyl)phenyl)octahydro-4H-pyrazino[1,2-a]pyrazin-4-one] showed a pIC50 (Homo sapiens, HEK-293T, 24 h) of under 5.00. As to `CNS(=O)(=O)N1CCN2c3ncccc3N(c3ccc(C(F)(F)F)cc3)CC2C1` (stereo not shown) [compound 45, N-methyl-5-(4-(trifluoromethyl)phenyl)-5,6,6a,7,9,10-hexahydro-8H-pyrazino[1,2-a]pyrido[3,2-e]pyrazine-8-sulfonamide], the pIC50 (Homo sapiens, HEK-293T, 24 h) is over 6.00.
